Reference: PubChem BioAssay AID602264 (The Scripps Research Institute Molecular Screening Center, 2012)
Values joined by “and” are separate entries in the source; they are usually repeats but may differ in a detail not shown here. Equal entries are not always repeated. Active and inactive are the calls of the source. No rule for the calls is given here.

What follows are compounds tested against Mu-type opioid receptor (Homo sapiens) + Delta-type opioid receptor (Homo sapiens) (UniProt P35372+P41143) (assay: agonists of MOR-DOR heterodimerization, dose response, counter-screen for MC4R biased agonist project, cell-based, luminescence (AID 602264)). Conditions: cell-based OPRM1-OPRD1 heterodimerization.
Chain of Mu-type opioid receptor (Homo sapiens) + Delta-type opioid receptor (Homo sapiens) (P35372 whole entry, looked up): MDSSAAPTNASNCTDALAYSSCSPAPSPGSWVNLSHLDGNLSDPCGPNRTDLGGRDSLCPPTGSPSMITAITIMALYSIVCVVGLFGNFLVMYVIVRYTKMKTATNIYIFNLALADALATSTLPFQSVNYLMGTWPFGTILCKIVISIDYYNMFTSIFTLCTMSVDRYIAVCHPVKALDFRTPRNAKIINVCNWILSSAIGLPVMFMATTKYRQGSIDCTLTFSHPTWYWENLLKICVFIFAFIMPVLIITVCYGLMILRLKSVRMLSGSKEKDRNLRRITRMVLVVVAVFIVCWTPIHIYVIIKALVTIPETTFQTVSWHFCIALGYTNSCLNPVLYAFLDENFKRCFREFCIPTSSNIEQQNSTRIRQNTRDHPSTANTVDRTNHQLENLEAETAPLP
Chain of Mu-type opioid receptor (Homo sapiens) + Delta-type opioid receptor (Homo sapiens) (P41143 whole entry, looked up): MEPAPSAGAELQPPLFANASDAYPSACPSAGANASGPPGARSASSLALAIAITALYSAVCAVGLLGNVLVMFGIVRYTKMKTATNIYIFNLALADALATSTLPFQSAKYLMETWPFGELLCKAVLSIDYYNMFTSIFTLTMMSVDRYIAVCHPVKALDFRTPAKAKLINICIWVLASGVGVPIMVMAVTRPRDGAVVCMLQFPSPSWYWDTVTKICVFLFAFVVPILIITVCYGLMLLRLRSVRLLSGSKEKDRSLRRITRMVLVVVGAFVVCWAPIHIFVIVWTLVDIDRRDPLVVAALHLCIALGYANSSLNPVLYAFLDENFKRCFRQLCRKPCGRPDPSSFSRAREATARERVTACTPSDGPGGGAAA

Row | Structure (SMILES) | EC50
1 | COc1ccccc1-c1cc(NC(C)=O)c2ncc(-c3cccc(C(F)(F)F)c3)n2c1 | > 92.5 µM (inactive)
2 | CCCOC(=O)c1cccc(Nc2nc(-c3cccnc3)nc3ccccc23)c1 | > 92.6 µM (inactive)
3 | Cc1ccc(NC(=S)NC(=O)c2ccc(-c3ccc(Cl)cc3)o2)c(O)c1 | > 64.6 µM (inactive)
4 | CCCCCCCCNS(=O)(=O)CCNCCc1ccccc1 | > 92.4 µM (inactive)
5 | Nc1c(-c2cccs2)cnn1-c1nc(-c2ccc(Cl)cc2Cl)cs1 | > 64.6 µM (inactive)
6 | Cc1ccc(C(=O)NCCNc2nc3cc(C)c(C)cc3cc2C)cc1 | > 64.6 µM (inactive)
7 | Cc1ccc(C(=O)Nc2nc(C(N)Cc3ccc(C(F)(F)F)cc3)cs2)cc1 (stereo not given) | > 64.6 µM (inactive)
8 | Cc1ccc(C(=O)c2coc3c2C(=O)C(=O)c2ccccc2-3)cc1 | > 64.6 µM (inactive)
9 | NC(Cc1ccc(Cl)cc1)c1csc(NC(=O)Nc2ccccc2)n1 (stereo not given) | > 64.6 µM (inactive)
10 | COc1ccc(-c2cc(NC(C)=O)c3ncc(-c4cccc(C(C)=O)c4)n3c2)cc1OC | > 64.6 µM (inactive)
11 | COc1cc(/C=C2\Oc3ccc(C#Cc4ccc(O)cc4)cc3C2=O)cc(OC)c1 | > 92.5 µM (inactive)
12 | CN(C)CCOc1ccc(-c2c(-c3ccsc3)sc3ccccc23)cc1 | > 92.5 µM (inactive)
13 | CCCCCCCCCCOC(=O)Cn1c(COc2cccc(C)c2)[n+](C)c2ccccc21 | > 64.6 µM (inactive)
14 | CCCCCCCCCCCCCCCC[n+]1cccc(C(=O)N(CC)CC)c1 | > 64.6 µM (inactive)
15 | CC(C)c1ccc(NC(=O)CSc2ncccc2C(=O)Oc2cccc([N+](=O)[O-])c2)cc1 | > 92.5 µM (inactive)
16 | COc1cccc(-c2cnc3c(NC(C)=O)cc(-c4cc(OC)c(OC)c(OC)c4)cn23)c1 | > 64.6 µM (inactive)
17 | Cc1ccc(-c2csc3nc4c5ccccc5c(NCCCN(C)C)nn4c(=O)c23)cc1 | > 64.6 µM (inactive)
18 | COc1cccc(-c2cnc3c(NC=O)cc(-c4cc(OC)c(OC)c(OC)c4)cn23)c1 | > 92.5 µM (inactive)
19 | CCOC(=O)c1ccc(-c2ccc(/C=C(\C#N)C(=O)NCc3cccs3)o2)cc1 | > 64.6 µM (inactive)
20 | COc1ccc(NC(=O)Nc2nnc(-c3ccccc3SCc3ccccc3)s2)cc1 | > 92.5 µM (inactive)
21 | COc1cc(-c2cc(NC=O)c3ncc(-c4ccccc4)n3c2)cc(OC)c1OC | > 64.6 µM (inactive)
22 | COc1ccc(-c2cnc3c(NC(C)=O)cc(-c4ccccc4OC)cn23)cc1OC | > 64.6 µM (inactive)
23 | COc1cc(NS(=O)(=O)c2ccc(NC(=S)NC(=O)c3sc4ccccc4c3Cl)cc2)ncn1 | > 92.4 µM (inactive)
24 | COc1cccc(-c2cnc3c(NC(C)=O)cc(-c4ccsc4)cn23)c1 | > 92.5 µM (inactive)

Row | Structure (SMILES) | EC50
25 | Nc1ccc(C2(c3ccc(N)cc3)c3ccccc3-c3ccccc32)cc1 | > 92.5 µM (inactive)
26 | CCOCCCN(Cc1ccco1)C(=O)c1cc2c(=O)[nH]c3ccc(C)cc3c2s1 | > 64.6 µM (inactive)
27 | CC(=O)Nc1cc(-c2ccccc2)cn2c(-c3cccc(C(C)=O)c3)cnc12 | > 64.6 µM (inactive)
28 | CC1=NNC(=O)/C1=C\c1cn(-c2ccccc2)nc1-c1ccc(Cl)cc1 | > 92.5 µM (inactive)
29 | COc1cccc(CC2(CO)CCCN(Cc3[nH]c4ccc(C)cc4c3C)C2)c1 (stereo not given) | > 92.5 µM (inactive)
30 | O=C1OC(c2ccccc2)(c2cc(Br)ccc2O)c2ccccc21 (stereo not given) | inactive
31 | CC12CCC3C(CC=C4CC(O)CCC43C)C1C/C(=C\c1ccccc1F)C2=O (stereo not given) | inactive
32 | COc1ccc(-c2cc(NC(C)=O)c3ncc(-c4ccc(OC)c(OC)c4)n3c2)cc1OC | > 64.6 µM (inactive)
33 | COc1ccccc1-c1cc(NC(C)=O)c2ncc(-c3ccccc3)n2c1 | > 92.4 µM (inactive)
34 | O=C(NC(c1ccccc1)c1ccc2ccccc2n1)C1CCN(CCOc2ccc(Cl)cc2Cl)CC1 (stereo not given) | inactive
35 | O=C(CCN1C(=O)/C(=C/C=C/c2ccccc2)SC1=S)Nc1ccccn1 | > 92.5 µM (inactive)
36 | COc1ccc(-c2oc3ccc(-c4ccc5c(c4)OCO5)cc3c2C#CC2(O)CCCCC2)cc1 | > 64.6 µM (inactive)
37 | NC(Cc1ccc(Cl)cc1)c1csc(Nc2ccc(-c3ccccc3)nn2)n1 (stereo not given) | > 92.4 µM (inactive)
38 | OC(CNCCc1ccc(C(F)(F)F)cc1)COC(c1ccccc1)c1ccccc1 (stereo not given) | > 64.6 µM (inactive)
39 | CC(=O)Nc1cc(-c2cccc(C(=O)N(C)C)c2)cn2c(-c3ccc(F)c(Cl)c3)cnc12 | > 64.6 µM (inactive)
40 | COc1ccc2sc(-c3ccc(S(C)(=O)=O)cc3)c(C#Cc3cncn3C)c2c1 | > 92.5 µM (inactive)
41 | NC(Cc1ccc(C(F)(F)F)cc1)c1csc(NC(=O)Nc2ccccc2Cl)n1 (stereo not given) | > 64.6 µM (inactive)
42 | CC(=O)Nc1cc(-c2cccc(NS(C)(=O)=O)c2)cn2c(-c3ccccc3)cnc12 | > 92.5 µM (inactive)
43 | CCN1CCN(Cc2ccc(NC(=O)c3ccc(C)c(NC(=O)C(=O)c4c[nH]c5ccccc45)c3)cc2C(F)(F)F)CC1 | > 10.3 µM (inactive) and > 92.5 µM (inactive)
44 | Cc1cccnc1C(NC(=O)C1CCN(CCOc2ccc(Cl)cc2Cl)CC1)c1ccc(Cl)cc1 (stereo not given) | inactive
45 | O=C1c2cccc3cccc(c23)C(=O)N1CC1CCN(CC(O)COc2ccc3ccccc3c2)CC1 (stereo not given) | > 10.3 µM (inactive)
46 | CCOC(=O)C(=CNc1ccc2c(c1)nnn2-c1ccc(Cl)cc1)C(=O)OCC | > 64.6 µM (inactive)
47 | O=C(c1ccc(COc2ccc(Br)cc2)o1)N1N=C(C(F)F)CC1(O)C(F)F (stereo not given) | inactive
48 | COc1cccc(-c2sc3ccccc3c2-c2ccc(OCCN(C)C)cc2)c1 | > 64.6 µM (inactive)

Row | Structure (SMILES) | EC50
49 | CC(C)c1ccc(NS(=O)(=O)c2ccc(-n3cccn3)cc2)cc1 | > 92.5 µM (inactive)
50 | CCOc1ccc(Cn2c3ccc(OC)cc3c3nc4ccccc4nc32)cc1OC | > 64.6 µM (inactive)
51 | COc1ccc(-c2cc(NC(C)=O)c3ncc(-c4ccc(F)cc4)n3c2)cc1OC | > 64.6 µM (inactive)
52 | O=C(CSc1ccccc1)Nc1nnc(/C=C/c2ccccc2)s1 | > 92.5 µM (inactive)
53 | N#Cc1sc2nc(-c3cccs3)cc(-c3ccc(F)cc3)c2c1N | > 92.5 µM (inactive)
54 | CC(=O)Nc1cc(-c2cccc(F)c2)cn2c(-c3ccc(F)c(Cl)c3)cnc12 | > 64.6 µM (inactive)
55 | Cc1nnnn1/C(=C\c1ccccc1)C(=O)OCC(=O)Nc1ccc(Cl)cc1F | > 92.5 µM (inactive)
56 | CCOC(=O)Cc1csc(NC(=O)c2sc3nc4cc(C)ccc4cc3c2N)n1 | > 92.4 µM (inactive)
57 | CCN1CCN(Cc2ccc(NC(=O)c3cc(NC(=O)C(=O)c4c[nH]c5ccccc45)cc(OC)c3)cc2C(F)(F)F)CC1 | > 92.5 µM (inactive)
58 | Cc1ccc(C2=NN(C(=O)c3cccs3)C(c3ccccc3O)C2)cc1 (stereo not given) | > 64.6 µM (inactive)
59 | Cc1ccc2sc(N(CCCN(C)C)C(=O)CN3C(=O)c4ccccc4C3=O)nc2c1C | > 64.6 µM (inactive)
60 | CN(C)CCOc1ccc(-c2c(-c3ccccc3)sc3ccccc23)cc1 | > 92.5 µM (inactive)
61 | NC(Cc1ccc(C(F)(F)F)cc1)c1csc(Nc2nccc(C(F)(F)F)n2)n1 (stereo not given) | > 92.4 µM (inactive)
62 | COc1cc2nc(Nc3ccc(C)c(Cl)c3)nc(N)c2cc1OC | > 92.5 µM (inactive)
63 | CCN1CCN(CCNC(=O)c2ccc(/C=C3\Sc4ccccc4N(Cc4ccccc4F)C3=O)cc2)CC1 | > 92.5 µM (inactive)
64 | CCC(C)c1ccc(NC(=S)NC2CCN(Cc3ccccc3)CC2)cc1 (stereo not given) | > 64.6 µM (inactive)
65 | Cc1c(CCOC(=O)CC23CC4CC(CC(C)(C4)C2)C3)sc[n+]1CC(=O)c1ccccc1 | > 92.5 µM (inactive)
66 | O=C(Nc1cc(-c2nc3ccccc3s2)ccc1Cl)c1ccc2c(c1)OCO2 | > 92.4 µM (inactive)
67 | CCN1CCN(Cc2ccc(NC(=O)c3cc(NC(=O)c4cncc(-c5ccc(C#N)cc5)c4)cc(OC)c3)cc2C(F)(F)F)CC1 | > 64.6 µM (inactive)
68 | CC(=O)Nc1cc(-c2ccc(C(=O)NC3CC3)cc2)cn2c(-c3cccc(C(C)=O)c3)cnc12 | > 64.6 µM (inactive)
69 | CCCCCCCCCCOC(=O)Cn1c(COc2ccc(OC)cc2)[n+](C)c2ccccc21 | > 92.5 µM (inactive)
70 | Cc1cc(C)c2sc(N(CCCN(C)C)C(=O)COc3ccc(Cl)cc3)nc2c1 | > 92.5 µM (inactive)
